Results: patent publication US8647651B2, “Synergistic mixtures of C6- to C12-alkanediols and tropolone (derivatives)” (priority 2005, dated 2014)

Tested on: Aspergillus niger ATCC 16404
Experiment: Testing for adequate preservation (European Pharmacopoeia) of O/W emulsion, Example 1
Type: cell-based
Conditions: for Aspergillus niger germ count: O/W emulsion pH 5.5, 0.5% product A, 0.01% product B, 0.31% product C
Protocol: Testing for adequate preservation was carried out in accordance with the European Pharmacopoeia. Testing thus comprises contamination of the formulation, if possible in its final condition, with a prescribed inoculum of suitable microorganisms, storage of the inoculated formulation at a certain temperature, removal of samples from the container at certain intervals of time and determination of the number of microorganisms in the samples removed in this way. The preserving properties are adequate if, under the conditions of the test, a clear reduction or, where appropriate, no increase in the germ count results in the inoculated formulations after the prescribed times at the prescribed temperatures. Experimental details of the test procedure are described in the European Pharmacopoeia (ISBN 3-7692-2768-9; Supplement 2001 to the 3rd Edition, page 421-422, chapter 5.1.3). The following microorganism strains were used for the tests for adequate preservation: • A: Escherichia coli ATCC 8739 • B: Pseudomonas aeruginosa ATCC 9027 • C: Staphylococcus aureus ATCC 6538 • D: Candida albicans ATCC 10231 • E: Aspergillus niger ATCC 16404 The initial germ count (CFU/g; “0 value”) was in the range of from 250,000 to 320,000 in the various test series. Formulation: For the tests for adequate preservation, a defined amount of the active compound combination according to the invention (product C) was incorporated into an O/W emulsion. For comparison purposes, the comparison products (product A and B) were incorporated into separate O/W emulsions. [table] The results of the preservative stress tests for Aspergillus niger for the active compound combinations investigated, comprising the mixture according to the invention (product C) or the comparison systems (products A and B) are compared in Table 2. The synergistic effect of the mixture according to the invention (product C) manifests itself here above all in the residual germ counts for Aspergillus niger which remain after 28 days.

## O=c1cccccc1O [product B, 2,4,6-cycloheptatrien-1-one, 2-hydroxy]
28 days, product A 0.5 wt. %
  reduction in the number of colony-forming units (CFU) of Aspergillus niger: no such significant reduction
Day 0 (initial germ count)
  Aspergillus niger germ count: 280,000 CFU/ml
Day 2
  Aspergillus niger germ count: 72,000 CFU/ml
Day 7
  Aspergillus niger germ count: 2,000 CFU/ml
Day 14
  Aspergillus niger germ count: 4,800 CFU/ml
Day 28
  Aspergillus niger germ count: 100 CFU/ml
